Data on nine compounds can be found in ChEMBL document CHEMBL1201862, “PubChem BioAssay data set” (2004).

The target in one test is T1, Caspase-3 (Homo sapiens, UniProt P42574).
T1 sequence (P42574 whole entry): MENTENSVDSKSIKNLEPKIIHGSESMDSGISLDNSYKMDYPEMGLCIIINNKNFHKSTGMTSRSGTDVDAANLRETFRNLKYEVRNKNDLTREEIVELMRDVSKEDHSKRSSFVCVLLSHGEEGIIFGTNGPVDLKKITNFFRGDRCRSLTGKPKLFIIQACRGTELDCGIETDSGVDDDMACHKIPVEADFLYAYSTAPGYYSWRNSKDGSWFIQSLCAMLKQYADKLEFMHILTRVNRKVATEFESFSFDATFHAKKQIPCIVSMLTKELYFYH
Kind of test: activators of human procaspase-3 D3A mutant – biochemical, absorbance, PC-3 D3A mutant, counter-screen for dual procaspase-3/7 activator project, dose response (AID 504328).

Another test addresses Caspase-7 (Homo sapiens, UniProt P55210). Description: potency of procaspase-7 enzyme activation – biochemical, absorbance, human, dual procaspase-3/-7 activator project, dose response (AID 504330).
Test [1] concerns the target Dual specificity protein phosphatase 3 (Homo sapiens, UniProt P51452). Kind of test: inhibition constants for human DUSP3 – biochemical, colorimetric, SAR follow-up (AID 2004).
In test [2] the target is Cyclin-dependent kinase 5/CDK5 activator 1 (Homo sapiens, UniProt Q00535). Description: blockade of human CDK5 activity – biochemical, cherry-picked samples, set 2, dose response (AID 504545).
For test [3], the target named is Luciferin 4-monooxygenase (Photinus pyralis, UniProt P08659). Description: inhibition of purified Photinus pyralis luciferase – biochemical, luminescence, dose response (AID 1891).
The nature of test [4]: ADP-Glo luciferase signal interference – biochemical, luminescence, cherry-picked samples, set 2, artefact control for CDK5 inhibitor project, dose response (AID 504546). Format: functional, cell-based. For orientation: In ADP-Glo the light output rises with the ADP produced.
Test [5] is described as follows: Luminescence Cell-Based Dose Confirmation HTS to Identify Inhibitors of Platelet Dense Granule Release. [Related pubchem assays: 1663 (Primary HTS), 1678 (Summary of Project)]. The class given is functional.
Test [6] has as its target Induced myeloid leukemia cell differentiation protein Mcl-1 (Homo sapiens, UniProt Q07820). Format: functional.
Test [7] concerns the target T2, Voltage-gated N-type calcium channel alpha-1B subunit/Amyloid beta A4 precursor protein-binding family A member 1 (Homo sapiens, UniProt Q00975+Q02410). The class given is protein assay.
The target of test [8] is T2, Voltage-gated N-type calcium channel alpha-1B subunit/Amyloid beta A4 precursor protein-binding family A member 1. Kind of test: disruptors of Mint-PDZ/N-type channel peptide interaction – biochemical, HTRF, set 2, SAR follow-up (AID 434980). The class given is functional. (In general: Time-resolved FRET reads energy transfer from a long-lived donor to a nearby acceptor.)

For test [9], the target named is T3, Probable nicotinate-nucleotide adenylyltransferase (Staphylococcus aureus (strain N315), UniProt P65502). Format: functional, Staphylococcus aureus subsp. aureus N315.
T3 sequence (P65502 whole entry): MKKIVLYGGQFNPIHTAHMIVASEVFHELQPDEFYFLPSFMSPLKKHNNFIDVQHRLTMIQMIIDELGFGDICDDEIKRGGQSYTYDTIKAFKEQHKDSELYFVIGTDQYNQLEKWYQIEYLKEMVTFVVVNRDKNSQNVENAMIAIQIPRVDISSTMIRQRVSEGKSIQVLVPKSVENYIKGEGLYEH
The target in test [10] is T3, Probable nicotinate-nucleotide adenylyltransferase. Format: functional, Staphylococcus aureus subsp. aureus N315. The note with it: read-out: IC50_Mean.
For the next test, the target named is SUMO E1/E2 (Homo sapiens, UniProt P63279+Q9UBE0+Q9UBT2). Description: SAR analysis of SUMOylation using HTRF in an in-Vitro dose response assay. [Related pubchem assays (depositor defined):AID2006, AID2011, AID2018, AID2069, AID2658]. The class given is functional.
Test [11] deals with T2, Voltage-gated N-type calcium channel alpha-1B subunit/Amyloid beta A4 precursor protein-binding family A member 1. The class given is protein assay. The source holds these as a separate data set.
Test [12] has the same target. Kind of test: disruptors of Mint-PDZ/N-type channel peptide interaction – biochemical, HTRF, SAR follow-up (AID 2489). The class given is functional.
The next test addresses Genome polyprotein (Hepatitis C virus, UniProt Q2Q167). Description: disruption of hepatitis C core self-association – biochemical, TR-FRET, dose response (AID 2159).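 Note: blocks dimerization of HCV core protein measured by TR-FRET between tagged core106 pairs.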 Details: species or system Hepacivirus hominis.
In the next test the target is Mu-type opioid receptor (Homo sapiens, UniProt P35372). Kind of test: SAR Analysis of Antagonists of the MOR Receptor using an Image-Based Assay - Set 3. [Related pubchem assays (depositor defined):AID1777, AID1785, AID1786, AID1966, AID2133, AID2136, AID2284, AID2285, AID2420]. The class given is functional.
In test [13] the target is T4, Kappa-type opioid receptor (Homo sapiens, UniProt P41145). Description: SAR analysis of small molecule antagonists of the kappa opioid receptor via a luminescent beta-arrestin assay - Set 4. [Related pubchem assays (depositor defined):AID1777, AID1778, AID1785, AID1786, AID1966, AID2133, AID2136, AID2285]. The class given is functional.
T4 sequence (P41145 whole entry): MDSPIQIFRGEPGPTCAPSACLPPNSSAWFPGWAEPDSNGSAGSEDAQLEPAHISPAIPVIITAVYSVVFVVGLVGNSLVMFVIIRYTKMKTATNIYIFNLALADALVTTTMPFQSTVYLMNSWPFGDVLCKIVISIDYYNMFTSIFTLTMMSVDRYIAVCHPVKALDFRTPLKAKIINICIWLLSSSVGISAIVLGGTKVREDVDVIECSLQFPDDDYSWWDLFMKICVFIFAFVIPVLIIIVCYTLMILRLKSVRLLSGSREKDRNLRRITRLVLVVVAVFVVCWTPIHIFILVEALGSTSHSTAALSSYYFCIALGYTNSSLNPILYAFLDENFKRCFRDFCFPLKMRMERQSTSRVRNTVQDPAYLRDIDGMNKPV
The target in test [14] is T4, Kappa-type opioid receptor. Kind of test: SAR analysis of Antagonists of the Kappa Opioid Receptor (KOR) using an Image-Based Assay - Set 4. [Related pubchem assays (depositor defined):AID1777, AID1785]. The class given is functional.
For test [15], the target named is Delta-type opioid receptor (Homo sapiens, UniProt P41143). Description: SAR Analysis of Antagonists of the DOR Receptor using an Image-Based Assay - Set 3. [Related pubchem assays (depositor defined):AID1777, AID1785]. Format: functional.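 Note: U2OS cells expressing DOR1 and beta-arrestin GFP stimulated with 100 nM SNC80; imaging of GFP-tagged beta-arrestin moving into spots after receptor activation.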
In test [16] the target is Serine/threonine-protein phosphatase PP1-alpha catalytic subunit (Homo sapiens, UniProt P62136). Kind of test: inhibition of protein phosphatase 1 activity – biochemical, fluorescence, dose response (AID 2403).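 Note: phosphatase turnover of OMFP into fluorescent 3-O-methylfluorescein.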
Serine/threonine-protein phosphatase PP1-alpha catalytic subunit, sequence (P62136 whole entry): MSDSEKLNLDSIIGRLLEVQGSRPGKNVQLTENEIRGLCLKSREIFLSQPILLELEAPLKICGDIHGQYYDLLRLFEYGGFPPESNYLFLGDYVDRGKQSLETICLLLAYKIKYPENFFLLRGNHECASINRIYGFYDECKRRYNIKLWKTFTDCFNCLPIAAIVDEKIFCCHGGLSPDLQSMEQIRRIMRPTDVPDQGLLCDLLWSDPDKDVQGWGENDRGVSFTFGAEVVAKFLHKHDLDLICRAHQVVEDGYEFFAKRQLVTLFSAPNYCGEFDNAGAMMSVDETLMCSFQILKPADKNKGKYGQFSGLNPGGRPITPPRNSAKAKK
Test [17] concerns the target Peroxisome proliferator-activated receptor gamma/Nuclear receptor corepressor 2 (Homo sapiens, UniProt P37231+Q9Y618). Kind of test: Counterscreen for NR2E3 inverse agonists: TR-FRET-based biochemical high throughput dose response assay to identify inverse agonists of the interaction between peroxisome proliferator-activated receptor gamma (PPARg) and nuclear receptor co-repressor 2 (NCOR2). The class given is functional.

The target in test [18] is T5, Serine/threonine-protein phosphatase (Homo sapiens, UniProt Q9BPW0).
T5 sequence (Q9BPW0 whole entry): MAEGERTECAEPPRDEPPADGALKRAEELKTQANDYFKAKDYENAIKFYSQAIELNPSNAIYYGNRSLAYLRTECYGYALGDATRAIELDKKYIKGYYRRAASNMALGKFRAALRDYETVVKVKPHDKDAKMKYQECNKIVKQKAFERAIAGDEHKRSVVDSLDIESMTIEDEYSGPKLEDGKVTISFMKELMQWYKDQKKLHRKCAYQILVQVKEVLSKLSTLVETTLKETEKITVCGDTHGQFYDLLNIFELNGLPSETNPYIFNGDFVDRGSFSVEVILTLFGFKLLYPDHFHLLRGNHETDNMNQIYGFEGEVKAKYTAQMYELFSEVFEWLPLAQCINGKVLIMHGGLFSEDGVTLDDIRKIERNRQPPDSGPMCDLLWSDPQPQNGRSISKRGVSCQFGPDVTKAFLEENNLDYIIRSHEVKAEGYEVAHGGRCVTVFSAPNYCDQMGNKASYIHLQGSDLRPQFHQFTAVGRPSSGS
Description: Counterscreen for inhibitors of PP1: fluorescence-based biochemical high throughput dose response assay to identify inhibitors of Protein Phosphatase 5 (PP5). [Related pubchem assays: 2034 (Summary (PP5 inhibitors)), 1987 (PP5 inhibitors in singlate), 2235 (PP1 inhibitors in singlate)]. (A counterscreen serves to expose hits that act by an unwanted route or on another target.)

Test [19] has as its target Photoreceptor-specific nuclear receptor (Homo sapiens, UniProt Q9Y5X4). Kind of test: ligands suppressing NR2E3 nuclear receptor activity – biochemical, TR-FRET, dose response (AID 463256). The class given is functional.
In another test the target is Hexokinase HKDC1 (Homo sapiens, UniProt Q2TB90). Description: inhibition of HKDC1 glucose phosphorylation – biochemical, W721R variant, dose response (AID 504729). Format: functional.
Test [20] deals with Eukaryotic translation initiation factor 4E (Mus musculus, UniProt P63073). Kind of test: blockers of eIF4G binding by eIF4E – biochemical, TR-FRET, dose response (AID 855).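 Note: potency for disrupting eIF4E binding to eIF4GI seen as loss of FRET.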 Format: functional.
For test [21], the target named is G2/mitotic-specific cyclin-B1 (Homo sapiens, UniProt P14635). Description: HeLa cell cycle G2/M accumulation – FACS, mechanism study for Wee1 degradation inhibitor project, late-stage follow-up, panel member Cyclin B Degradation (AID 2088).
Another test addresses Wee1-like protein kinase (Homo sapiens, UniProt P30291). Kind of test: HeLa cell cycle G2/M accumulation – FACS, mechanism study for Wee1 degradation inhibitor project, late-stage follow-up, panel member Wee1 Degradation (AID 2088).
Test [22] concerns the target T6, Calpain-2 catalytic subunit (Sus scrofa, UniProt P43367).
T6 sequence (P43367 whole entry): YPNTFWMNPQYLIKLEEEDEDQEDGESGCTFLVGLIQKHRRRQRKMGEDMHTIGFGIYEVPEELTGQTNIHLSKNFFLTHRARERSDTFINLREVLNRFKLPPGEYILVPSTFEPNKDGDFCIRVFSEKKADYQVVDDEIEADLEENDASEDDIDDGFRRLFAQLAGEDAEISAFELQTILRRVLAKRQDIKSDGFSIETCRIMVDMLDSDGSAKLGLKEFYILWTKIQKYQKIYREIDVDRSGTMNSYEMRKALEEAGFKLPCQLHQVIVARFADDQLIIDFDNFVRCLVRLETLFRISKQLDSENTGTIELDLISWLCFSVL
Kind of test: m-calpain protease blockers, concentration series – biochemical, fluorogenic peptide substrate, dose response (AID 1420). Format: functional.

Another test has as its target Bcl-2-like protein 10 (Homo sapiens, UniProt Q9HD36). Description: Bcl-B/TR3 peptide binding disruption – biochemical, fluorescence polarization, FITC-TR3 peptide, selectivity assay for Bfl-1 inhibitor project, primary screen (AID 748).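 Note: fluorescence polarization from a fluorescein-labelled TR3 peptide binding purified Bcl-B.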
The test system of a further test is HeLa. Description: viability loss in HeLa cells – cell-based, 24 h, cherry-picked samples, cytotoxicity control, dose response (AID 504726).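 Note: potency for cytotoxicity as loss of luminescence signal.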 The note with it: Homo sapiens. Format: functional.

Activity calls are given as the source filed them.
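Throughout, for IC50 Mean: confirmatory dose-response retesting of NadD inhibitor hits first found in an ultra-high-throughput screen.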

T2 sequence (Q00975 whole entry): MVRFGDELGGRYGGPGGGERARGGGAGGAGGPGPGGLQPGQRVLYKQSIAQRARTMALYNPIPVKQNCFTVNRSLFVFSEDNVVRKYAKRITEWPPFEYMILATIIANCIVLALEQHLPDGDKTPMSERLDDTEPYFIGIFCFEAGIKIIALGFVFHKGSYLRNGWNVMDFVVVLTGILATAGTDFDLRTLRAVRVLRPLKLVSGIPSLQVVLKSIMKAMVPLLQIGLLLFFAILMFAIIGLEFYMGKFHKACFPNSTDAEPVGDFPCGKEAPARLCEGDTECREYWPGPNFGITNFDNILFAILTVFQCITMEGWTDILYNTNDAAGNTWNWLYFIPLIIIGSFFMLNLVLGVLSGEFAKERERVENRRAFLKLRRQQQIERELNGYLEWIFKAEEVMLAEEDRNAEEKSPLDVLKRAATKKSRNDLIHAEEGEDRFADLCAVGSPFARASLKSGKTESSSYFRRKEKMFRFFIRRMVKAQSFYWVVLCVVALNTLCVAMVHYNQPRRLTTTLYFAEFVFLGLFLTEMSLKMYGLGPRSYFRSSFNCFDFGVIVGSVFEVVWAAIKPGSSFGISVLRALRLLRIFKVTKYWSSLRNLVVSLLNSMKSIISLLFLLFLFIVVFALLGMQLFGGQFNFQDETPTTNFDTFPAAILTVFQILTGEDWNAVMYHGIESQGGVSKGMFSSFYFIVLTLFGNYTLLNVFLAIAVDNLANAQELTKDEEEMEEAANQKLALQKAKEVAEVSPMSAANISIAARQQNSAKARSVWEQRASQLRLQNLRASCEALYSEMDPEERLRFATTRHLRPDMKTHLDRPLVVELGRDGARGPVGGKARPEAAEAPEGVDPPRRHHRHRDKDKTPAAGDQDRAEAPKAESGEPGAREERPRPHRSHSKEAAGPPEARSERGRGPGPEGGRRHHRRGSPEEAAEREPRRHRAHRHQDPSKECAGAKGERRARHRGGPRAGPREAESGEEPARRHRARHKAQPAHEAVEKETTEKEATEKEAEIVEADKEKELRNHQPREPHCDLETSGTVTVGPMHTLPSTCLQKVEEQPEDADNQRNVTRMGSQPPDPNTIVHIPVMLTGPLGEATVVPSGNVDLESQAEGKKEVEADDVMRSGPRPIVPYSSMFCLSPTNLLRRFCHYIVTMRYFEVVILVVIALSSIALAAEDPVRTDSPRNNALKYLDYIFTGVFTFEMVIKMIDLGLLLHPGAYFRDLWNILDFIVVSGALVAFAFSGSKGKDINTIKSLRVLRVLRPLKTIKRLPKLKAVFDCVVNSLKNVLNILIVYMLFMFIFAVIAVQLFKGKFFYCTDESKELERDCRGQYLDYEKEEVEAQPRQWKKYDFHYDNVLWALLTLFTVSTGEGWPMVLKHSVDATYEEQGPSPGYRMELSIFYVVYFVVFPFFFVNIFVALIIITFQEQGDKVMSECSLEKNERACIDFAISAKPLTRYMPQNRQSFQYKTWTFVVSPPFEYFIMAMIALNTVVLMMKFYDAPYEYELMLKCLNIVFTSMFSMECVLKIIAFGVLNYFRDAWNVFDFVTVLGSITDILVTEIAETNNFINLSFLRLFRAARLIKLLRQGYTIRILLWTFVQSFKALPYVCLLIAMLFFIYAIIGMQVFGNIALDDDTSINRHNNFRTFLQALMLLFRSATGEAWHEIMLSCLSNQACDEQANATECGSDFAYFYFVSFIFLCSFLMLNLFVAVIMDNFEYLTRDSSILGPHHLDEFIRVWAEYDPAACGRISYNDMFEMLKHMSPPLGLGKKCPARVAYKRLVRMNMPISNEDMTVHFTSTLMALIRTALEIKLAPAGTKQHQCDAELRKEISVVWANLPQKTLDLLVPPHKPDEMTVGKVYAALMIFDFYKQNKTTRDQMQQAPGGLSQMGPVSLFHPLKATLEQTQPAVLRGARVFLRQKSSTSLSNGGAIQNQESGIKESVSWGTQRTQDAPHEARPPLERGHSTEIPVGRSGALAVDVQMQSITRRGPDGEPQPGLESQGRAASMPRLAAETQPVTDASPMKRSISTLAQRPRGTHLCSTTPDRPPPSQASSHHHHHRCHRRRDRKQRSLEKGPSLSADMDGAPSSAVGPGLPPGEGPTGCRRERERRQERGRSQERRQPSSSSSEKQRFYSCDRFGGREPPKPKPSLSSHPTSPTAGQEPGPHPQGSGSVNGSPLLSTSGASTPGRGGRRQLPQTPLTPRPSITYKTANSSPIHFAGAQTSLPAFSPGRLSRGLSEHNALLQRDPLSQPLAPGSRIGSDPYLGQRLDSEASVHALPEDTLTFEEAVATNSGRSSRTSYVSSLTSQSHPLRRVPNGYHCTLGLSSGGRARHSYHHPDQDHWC
T2 sequence (Q02410 whole entry): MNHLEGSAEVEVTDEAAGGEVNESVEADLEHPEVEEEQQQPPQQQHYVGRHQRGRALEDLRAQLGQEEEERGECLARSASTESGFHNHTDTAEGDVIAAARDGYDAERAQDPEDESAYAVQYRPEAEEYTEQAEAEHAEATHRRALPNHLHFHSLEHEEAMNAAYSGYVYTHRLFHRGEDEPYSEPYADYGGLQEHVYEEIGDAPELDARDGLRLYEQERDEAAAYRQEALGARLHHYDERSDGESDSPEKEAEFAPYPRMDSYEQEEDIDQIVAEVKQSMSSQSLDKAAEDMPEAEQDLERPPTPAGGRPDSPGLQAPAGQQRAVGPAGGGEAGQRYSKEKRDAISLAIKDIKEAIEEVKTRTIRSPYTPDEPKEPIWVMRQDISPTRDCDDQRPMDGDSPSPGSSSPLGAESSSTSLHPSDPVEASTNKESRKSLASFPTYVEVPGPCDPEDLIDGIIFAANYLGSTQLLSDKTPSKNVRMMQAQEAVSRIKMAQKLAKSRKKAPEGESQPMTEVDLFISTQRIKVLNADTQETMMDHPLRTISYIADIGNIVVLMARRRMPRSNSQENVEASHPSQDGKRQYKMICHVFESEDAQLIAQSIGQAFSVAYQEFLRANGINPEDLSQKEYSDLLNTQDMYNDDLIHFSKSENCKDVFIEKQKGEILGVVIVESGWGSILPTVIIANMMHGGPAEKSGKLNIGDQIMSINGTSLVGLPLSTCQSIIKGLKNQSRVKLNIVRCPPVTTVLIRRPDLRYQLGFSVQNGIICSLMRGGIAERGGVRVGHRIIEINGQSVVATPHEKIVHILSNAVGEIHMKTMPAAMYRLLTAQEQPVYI
Wee1-like protein kinase, sequence (P30291 whole entry): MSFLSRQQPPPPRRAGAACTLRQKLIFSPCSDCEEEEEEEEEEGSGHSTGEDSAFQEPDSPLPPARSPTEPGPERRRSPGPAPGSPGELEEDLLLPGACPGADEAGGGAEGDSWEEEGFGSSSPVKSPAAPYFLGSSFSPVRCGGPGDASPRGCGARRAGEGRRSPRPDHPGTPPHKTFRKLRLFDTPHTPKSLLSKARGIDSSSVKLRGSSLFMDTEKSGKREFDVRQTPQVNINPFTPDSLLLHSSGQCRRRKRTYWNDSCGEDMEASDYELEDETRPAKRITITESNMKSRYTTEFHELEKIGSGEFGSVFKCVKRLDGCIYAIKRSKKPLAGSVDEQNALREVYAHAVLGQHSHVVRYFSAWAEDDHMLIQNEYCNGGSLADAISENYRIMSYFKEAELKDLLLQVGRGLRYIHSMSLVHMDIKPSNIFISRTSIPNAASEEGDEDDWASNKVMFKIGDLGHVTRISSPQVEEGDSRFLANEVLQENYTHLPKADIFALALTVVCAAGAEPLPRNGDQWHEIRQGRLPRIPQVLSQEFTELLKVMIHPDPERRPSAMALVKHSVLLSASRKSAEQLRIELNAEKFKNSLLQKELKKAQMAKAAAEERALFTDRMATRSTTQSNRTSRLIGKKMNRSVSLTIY
Induced myeloid leukemia cell differentiation protein Mcl-1, sequence (Q07820 whole entry): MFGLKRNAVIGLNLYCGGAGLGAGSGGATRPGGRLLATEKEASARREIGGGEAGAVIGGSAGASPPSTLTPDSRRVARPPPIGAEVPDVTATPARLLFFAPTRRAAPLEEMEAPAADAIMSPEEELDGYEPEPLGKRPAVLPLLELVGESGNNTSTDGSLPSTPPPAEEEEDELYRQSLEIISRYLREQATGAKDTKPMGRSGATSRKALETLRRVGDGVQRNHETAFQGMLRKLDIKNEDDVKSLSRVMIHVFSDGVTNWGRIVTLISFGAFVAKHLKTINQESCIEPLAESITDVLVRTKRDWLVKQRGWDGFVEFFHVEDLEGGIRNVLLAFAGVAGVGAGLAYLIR

Turning to `COc1ccc(-c2cc(C(=O)OC3CCOC3=O)c3ccccc3n2)cc1` (stereo unspecified), the EC50 on Caspase-3 and on Caspase-7 was > 85.3 µM (inactive) throughout.

Take `O=Cc1ccc(Oc2ncnc3ccccc23)cc1`: the Ki in [1] was 43.7 µM (inactive).

Regarding `COc1ccc(C(=O)O/N=C(\C)c2ccccc2)cc1`, the AC50 in [2] is 26.1 µM (active); in [4] it was 90.4 µM (active). Further, the EC50 in test [3] was 0.637 µM (active); in [5], 3.61 µM (active).

Regarding `COc1ccc(NC(=O)c2cc(-c3ccco3)nc3ccccc23)cc1S(=O)(=O)N1CCOCC1`, the IC50 in [6] was 2.29 µM (active); in test [7], 3.76 µM (active); in test [8], 17.7 µM (active); in [9], 8.76 µM (active); in test [10], 28.1 µM (active); at SUMO E1/E2, 19.4 µM (active). For the same compound, the IC50 in test [11] was 2.59 µM (active); in test [12] it was 15 µM (active); at Genome polyprotein it was > 49.8 µM (not active).

`Cc1ccc(S(=O)(=O)NCc2ccc(C(=O)NC3CCN(Cc4ccccc4)C3)cc2)cc1` (stereo unspecified): the IC50 is > 32 µM (inactive) at Mu-type opioid receptor, > 20 µM (inactive) in [13], > 32 µM (inactive) in test [14] and > 32 µM (inactive) in test [15].

On to `N#Cc1ccc(CSc2nnc(NC(=O)c3ccc4ncsc4c3)s2)cc1`, for which the IC50 in [16] is 7.42 µM (active); in test [17], 3.79 µM (active); in [18] it was > 67 µM (not active); in [19], 3.91 µM (active); on Hexokinase HKDC1, 10.4 µM (active); in test [20] it was 13.1 µM (active).

As to `Cc1cc(O)nc(-n2nc(C)cc2NC(=O)c2cc3ccccc3o2)n1`, the EC50 in test [21] is > 49.7 µM (inactive); at Wee1-like protein kinase, > 16.6 µM (active).

Regarding `CCN(CC)CCc1c(C)[nH]c(C(=O)OCc2ccccc2)c1C`, the IC50 in test [22] is 14.4 µM (not active); at Bcl-2-like protein 10 it was 41.8 µM (active).

`NNc1nc2sc3c(c2c(=O)n1C1CCCCC1)CCN(Cc1ccccc1)C3`: in the test on HeLa, the AC50 was 46 µM (active).

Broadly, the EC50 is the concentration giving half of the maximal effect. One may read the Ki as the equilibrium dissociation constant of an inhibitor or competing ligand from its target. For orientation: AC50 means the concentration at which the activity in the assay is half-maximal.
